Measured values from ChEMBL document CHEMBL1125530, “1,4-Dihydropyridines as antagonists of platelet activating factor. 1. Synthesis and structure-activity relationships of 2-(4-heterocyclyl)phenyl derivatives” (J Med Chem, 1992).

Biological target: Platelet-activating factor receptor (Mus musculus) (UniProt Q62035)
Experiment: Ability to protect mice from lethal effects of an injection of PAF in vivo.
Type: functional, organism-based
Conditions: Mus sp.

Sequence of Platelet-activating factor receptor (Mus musculus) (Q62035 whole entry): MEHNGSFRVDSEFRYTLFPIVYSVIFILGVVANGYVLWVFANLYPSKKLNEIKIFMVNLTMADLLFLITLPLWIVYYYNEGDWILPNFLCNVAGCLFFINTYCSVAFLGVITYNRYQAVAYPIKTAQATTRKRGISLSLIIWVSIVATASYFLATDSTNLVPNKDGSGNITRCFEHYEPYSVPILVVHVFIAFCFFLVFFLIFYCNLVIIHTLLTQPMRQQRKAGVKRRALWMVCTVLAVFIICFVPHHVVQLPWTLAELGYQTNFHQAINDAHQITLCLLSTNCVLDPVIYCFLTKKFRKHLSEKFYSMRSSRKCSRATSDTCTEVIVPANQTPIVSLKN

SMILES	ED50 [mg/kg]
CCOC(=O)C1=C(c2ccc(-n3c(C)nc4cnccc43)cc2)NC(C)=C(C(=O)Nc2ccccn2)C1c1ccccc1Cl (stereo not given)	0.26
CCOC(=O)C1=C(c2ccc(-n3c(C)nc4ccncc43)cc2)NC(C)=C(C(=O)Nc2ccccn2)C1c1ccccc1Cl (stereo not given)	16
Cc1nnc2n1-c1sc(CCC(=O)N3CCOCC3)cc1C(c1ccccc1Cl)=NC2	2.03
CCOC(=O)C1=C(c2ccc(-n3c(C)nc4cnccc43)cc2)N=C(C)/C(=C(/O)OC(C)(C)C)C1c1ccccc1Cl (stereo not given)	2
CCOC(=O)C1=C(c2ccc(-n3c(C)nc4cnccc43)cc2)NC(C)=C(C(=O)Nc2ccccn2)C1c1cccc2c1OCO2 (stereo not given)	0.5
CCOC(=O)C1=C(c2ccc(-c3c(C)nc4sccn34)cc2)NC(C)=C(C(=O)Nc2ccccn2)C1c1ccccc1Cl (stereo not given)	5.4
CCOC(=O)C1=C(c2ccc(-n3c(C)nc(C)c3C)cc2)NC(C)=C(C(=O)Nc2ccccn2)C1c1ccccc1Cl (stereo not given)	10.5
CCOC(=O)C1=C(c2ccc(-c3c(C)nc4ccccn34)cc2)NC(C)=C(C(=O)Nc2ccccn2)C1c1ccccc1Cl (stereo not given)	92
CCOC(=O)C1=C(c2ccc(-n3c(C)nc4cnccc43)cc2)NC(C)=C(C(=O)Nc2ccccn2)C1c1ccccn1 (stereo not given)	4.1
CCOC(=O)C1=C(c2ccc(-n3c(C)nc4cnccc43)cc2)NC(C)=C(C(N)=O)C1c1ccccc1Cl (stereo not given)	1
CCOC(=O)C1=C(c2ccc(-n3c(C)nc4cnccc43)cc2)NC(C)=C(C(=O)Nc2ccccn2)C1c1csc2ccccc12 (stereo not given)	0.6
CCOC(=O)C1=C(c2ccc(-n3c(C)nc4cccnc43)cc2)NC(C)=C(C(=O)Nc2ccccn2)C1c1ccccc1Cl (stereo not given)	23
CCOC(=O)C1=C(c2ccc(-n3c(C)nc4cnccc43)cc2)NC(C)=C(C(=O)O)C1c1ccccc1Cl (stereo not given)	4.7
CCOC(=O)C1=C(c2ccc(-n3c(C)nc4cnccc43)cc2)NC(C)=C(C(=O)Nc2ccccn2)C1c1cccnc1Cl (stereo not given)	13
CCOC(=O)C1=C(c2ccc(-n3c(C)nc4cnccc43)cc2)NC(C)=C(C(=O)Nc2ccccn2)C1c1ccc(C#N)cc1 (stereo not given)	1.2
CCOC(=O)C1=C(c2ccc(-c3sc(C)nc3C)cc2)NC(C)=C(C(=O)Nc2ccccn2)C1c1ccccc1Cl (stereo not given)	7.4
CCOC(=O)C1=C(c2ccc(-n3c(C)nc4c(C)nc(C)cc43)cc2)NC(C)=C(C(=O)Nc2ccccn2)C1c1ccccc1Cl (stereo not given)	0.3
CCOC(=O)C1=C(c2ccc(-n3c(C)nnc3C)cc2)NC(C)=C(C(=O)Nc2ccccn2)C1c1ccccc1Cl (stereo not given)	34
CCOC(=O)C1=C(c2ccc(-n3c(C)nc4cnccc43)cc2)N=C(C)/C(=C(/O)OC)C1c1ccccc1Cl (stereo not given)	1.5
CCOC(=O)C1=C(c2ccc(-c3cccnc3C)cc2)NC(C)=C(C(=O)Nc2ccccn2)C1c1ccccc1Cl (stereo not given)	3.7
CCOC(=O)C1=C(c2ccc(-n3c(C)nc4cnccc43)cc2)N=C(C)/C(=C(/O)OCc2ccccc2)C1c1ccccc1Cl (stereo not given)	2
CCOC(=O)C1=C(c2ccc(-n3c(C)nc4cnccc43)cc2)NC(C)=C(C(=O)Nc2ccccn2)C1c1cccnc1 (stereo not given)	16
CCOC(=O)C1=C(c2ccc(-n3cc(C)nc3C)cc2)NC(C)=C(C(=O)Nc2ccccn2)C1c1ccccc1Cl (stereo not given)	3
CCOC(=O)C1=C(c2ccc(-n3ccnc3C)cc2)NC(C)=C(C(=O)Nc2ccccn2)C1c1ccccc1Cl (stereo not given)	22
CCOC(=O)C1=C(c2ccc(-n3c(C)nc4cnccc43)cc2)NC(C)=C(C(=O)Nc2ccccn2)C1c1ccccc1OC(F)(F)F (stereo not given)	0.2
CCOC(=O)C1=C(c2ccc(-n3c(C)nc4cnccc43)cc2)N=C(C)/C(=C(/O)OCCOC)C1c1ccccc1Cl (stereo not given)	0.16
CCOC(=O)C1=C(c2ccc(-n3c(C)nc4cnccc43)cc2)N=C(C)/C(=C(/O)OC2CCCCC2)C1c1ccccc1Cl (stereo not given)	4.7
CCOC(=O)C1=C(c2ccc(-n3c(C(F)(F)F)nc4cnccc43)cc2)NC(C)=C(C(=O)Nc2ccccn2)C1c1ccccc1Cl (stereo not given)	25
CCOC(=O)C1=C(c2ccc(-n3c(C)nc4cnccc43)cc2)NC(C)=C(C(=O)NC(C)(C)C)C1c1ccccc1Cl (stereo not given)	2.1
CCOC(=O)C1=C(c2ccc(-n3c(CC)nc4cnccc43)cc2)NC(C)=C(C(=O)Nc2ccccn2)C1c1ccccc1Cl (stereo not given)	10.5
